In patent US20230212143A9, “PRMT5 INHIBITOR COMPOUNDS” (University of Florida Research Foundation, Incorporated, priority 2019, published 2023):

Tests used:
PRMT5 [1] = target: T1, PRMT5 (Homo sapiens, UniProt O14744); test: AlphaLISA enzymatic inhibition assay; assay type: biochemical; parameters: made in house; host or cells: Sf9 insect cells (Bac-to-Bac baculovirus system)
Text: (§1) Protein expression and purification. […] Enzymatic inhibition assay. […] Cancer cell lines. […] Cell proliferation assay. […] Western blot.

PRMT5:MEP50 = target: T2, PRMT5:MEP50 (Homo sapiens, UniProt O14744); test: MTase-Glo enzymatic inhibition assay; assay type: biochemical; details: 100 nM PRMT5:MEP50, 10 μM SAM, 2 μM histone H4 (1-21)
T2 construct: made in house; host or cells: Sf9 insect cells (Bac-to-Bac baculovirus system)
T2 sequence (O14744 whole entry): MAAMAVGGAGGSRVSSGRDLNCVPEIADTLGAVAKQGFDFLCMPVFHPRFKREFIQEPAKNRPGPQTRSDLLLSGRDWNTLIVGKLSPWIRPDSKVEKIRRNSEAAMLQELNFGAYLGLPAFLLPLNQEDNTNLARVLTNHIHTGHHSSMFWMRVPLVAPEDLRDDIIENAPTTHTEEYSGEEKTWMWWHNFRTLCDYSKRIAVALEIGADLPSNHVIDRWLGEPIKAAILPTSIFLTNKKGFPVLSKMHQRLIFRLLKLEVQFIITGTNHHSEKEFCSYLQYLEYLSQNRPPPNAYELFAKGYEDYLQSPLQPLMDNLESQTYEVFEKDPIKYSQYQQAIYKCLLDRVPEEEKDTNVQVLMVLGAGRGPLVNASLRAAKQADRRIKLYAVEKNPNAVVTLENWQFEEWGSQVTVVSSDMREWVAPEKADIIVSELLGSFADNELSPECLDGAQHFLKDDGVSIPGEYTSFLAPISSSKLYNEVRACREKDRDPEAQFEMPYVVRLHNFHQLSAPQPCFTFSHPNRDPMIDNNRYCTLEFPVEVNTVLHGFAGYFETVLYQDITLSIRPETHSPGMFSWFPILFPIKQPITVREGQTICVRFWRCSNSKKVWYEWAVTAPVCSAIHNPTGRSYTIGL
T2 sequence (Q9BQA1 whole entry partner): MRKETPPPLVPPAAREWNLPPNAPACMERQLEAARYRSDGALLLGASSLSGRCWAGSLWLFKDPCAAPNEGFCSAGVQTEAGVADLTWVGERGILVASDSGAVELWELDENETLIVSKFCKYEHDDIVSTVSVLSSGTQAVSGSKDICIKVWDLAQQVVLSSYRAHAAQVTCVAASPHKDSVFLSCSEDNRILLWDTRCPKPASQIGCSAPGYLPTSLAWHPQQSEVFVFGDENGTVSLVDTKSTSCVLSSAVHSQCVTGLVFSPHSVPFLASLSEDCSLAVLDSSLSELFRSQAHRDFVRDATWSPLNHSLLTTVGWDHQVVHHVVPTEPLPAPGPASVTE
Text: as §1

PRMT5 [2] = target: T1, PRMT5; test: Cellular Thermal Shift Assay; assay type: cell-based; parameters: endogenous in cells; host or cells: MDA-MB-231; details: MDA-MB-231 triple negative breast cancer cells

T1 sequence (O14744 whole entry): as the sequence (O14744 whole entry) above
T1 sequence (Q9BQA1 whole entry partner): as the sequence (Q9BQA1 whole entry partner) above

Structure (SMILES) | IC50 (PRMT5:MEP50; 11-series) | IC50 (PRMT5:MEP50; 15-series) | further results
CCn1c2ccccc2c2cc(CNCc3ccccn3)ccc21 [CMP5] |  |  | enzymatic inhibition activity (PRMT5 [1]): weak
CCn1c2c(c3cc(C(=O)NCc4ccc5ccc(N)nc5c4)ccc31)CCCC2 [Compound 11-1F] | 1340 nM |  | 
Nc1ccc2ccc(CNC(=O)c3ccc4c(c3)c3c(n4CCO)CCCC3)cc2n1 [Compound 11-2F] | 883 nM |  | 
CCn1c2c(c3cc(C(=O)NCc4ccc5c(N)nc(N)nc5c4)ccc31)CCCC2 [Compound 11-9F] |  |  | PRMT5 melting temperature increase (PRMT5 [2]): 1.5 degree Celsius
CC(=O)N1CCC(Nc2cc(C(=O)NCc3ccc4ccc(N)nc4c3)ncn2)CC1 [Compound 15-1F] |  | 218 nM | 
CC(=O)N1CCC(Nc2cc(C(=O)NCc3ccc4c(N)nc(N)nc4c3)ncn2)CC1 [Compound 15-2F] |  | 152 nM | 
